# Assay results from the supplement of paper PMC12463676, “Small-molecule dissolution of stress granules by redox modulation benefits ALS models” (Nature Chemical Biology, 2025).
# Tests used:
# [1] = compound: NC(=O)CCCCC1CCSS1 [lipoamide]; test: thermal stability z-score vs DMSO; higher = more thermally stabilized by treatment; conditions: HeLa, lipoamide concentration 100 µM
# Procedure: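 Cellular thermal proteome profiling in HeLa cells. Cells were treated with 100 µM lipoamide for 1 h, with or without 1 mM arsenate for a further 1 h, then heated to ten temperatures (37-66.3 °C), and soluble protein was quantified by TMT mass spectrometry relative to 0.1% DMSO controls. The thermal stability score (sum of log2 fold changes minus the abundance score) was transformed to a z-score; mean of n = 3 experiments.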
# [2] = compound: O=[As]([O-])(O)O.[K+] [potassium arsenate]; test: as above; conditions: HeLa; arsenate concentration 1 mM
# Procedure: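 Cellular thermal proteome profiling in HeLa cells treated with 1 mM arsenate for 1 h (DMSO pretreatment), heated to ten temperatures (37-66.3 °C). Soluble protein was quantified by TMT mass spectrometry relative to DMSO controls; the thermal stability score was transformed to a z-score; mean of n = 3 experiments.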
# [3] = arsenate co-treatment: 1 mM arsenate 1 h
# 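Note: each temperature applied for 3 min, abundance score taken as mean log2 fold change at the two lowest temperatures, z-score obtained by mean subtraction and division by SD.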
# Sequence of UniProt Q8NBP0 (Q8NBP0 whole entry): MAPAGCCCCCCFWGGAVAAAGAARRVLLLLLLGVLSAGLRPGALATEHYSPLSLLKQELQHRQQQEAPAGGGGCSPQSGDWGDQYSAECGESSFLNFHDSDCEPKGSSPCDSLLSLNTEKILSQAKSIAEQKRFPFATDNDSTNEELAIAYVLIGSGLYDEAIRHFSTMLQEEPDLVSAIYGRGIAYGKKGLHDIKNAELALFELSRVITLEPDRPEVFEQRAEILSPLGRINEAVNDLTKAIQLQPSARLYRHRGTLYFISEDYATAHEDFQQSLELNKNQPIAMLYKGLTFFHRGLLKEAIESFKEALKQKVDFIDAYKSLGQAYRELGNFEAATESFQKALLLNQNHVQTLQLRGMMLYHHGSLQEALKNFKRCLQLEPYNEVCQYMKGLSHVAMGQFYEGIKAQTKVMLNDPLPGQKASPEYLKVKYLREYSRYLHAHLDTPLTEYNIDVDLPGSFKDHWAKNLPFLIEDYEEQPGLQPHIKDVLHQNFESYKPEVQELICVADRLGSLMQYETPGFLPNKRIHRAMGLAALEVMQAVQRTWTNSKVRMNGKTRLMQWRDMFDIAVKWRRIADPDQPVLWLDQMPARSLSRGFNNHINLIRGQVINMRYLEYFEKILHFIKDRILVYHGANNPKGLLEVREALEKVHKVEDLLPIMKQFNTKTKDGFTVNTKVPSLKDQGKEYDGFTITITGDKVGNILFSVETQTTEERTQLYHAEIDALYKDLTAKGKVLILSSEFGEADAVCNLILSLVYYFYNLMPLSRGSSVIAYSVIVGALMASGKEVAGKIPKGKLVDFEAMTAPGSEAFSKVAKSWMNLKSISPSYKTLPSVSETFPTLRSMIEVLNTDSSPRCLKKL
# Sequence of UniProt Q15363 (Q15363 whole entry): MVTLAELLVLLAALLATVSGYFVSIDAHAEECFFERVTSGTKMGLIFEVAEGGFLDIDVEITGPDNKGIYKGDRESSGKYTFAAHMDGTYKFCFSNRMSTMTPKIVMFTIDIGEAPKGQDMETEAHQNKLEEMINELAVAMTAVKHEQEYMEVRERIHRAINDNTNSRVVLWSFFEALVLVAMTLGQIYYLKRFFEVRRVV
# Sequence of UniProt Q5VSL9 (Q5VSL9 whole entry): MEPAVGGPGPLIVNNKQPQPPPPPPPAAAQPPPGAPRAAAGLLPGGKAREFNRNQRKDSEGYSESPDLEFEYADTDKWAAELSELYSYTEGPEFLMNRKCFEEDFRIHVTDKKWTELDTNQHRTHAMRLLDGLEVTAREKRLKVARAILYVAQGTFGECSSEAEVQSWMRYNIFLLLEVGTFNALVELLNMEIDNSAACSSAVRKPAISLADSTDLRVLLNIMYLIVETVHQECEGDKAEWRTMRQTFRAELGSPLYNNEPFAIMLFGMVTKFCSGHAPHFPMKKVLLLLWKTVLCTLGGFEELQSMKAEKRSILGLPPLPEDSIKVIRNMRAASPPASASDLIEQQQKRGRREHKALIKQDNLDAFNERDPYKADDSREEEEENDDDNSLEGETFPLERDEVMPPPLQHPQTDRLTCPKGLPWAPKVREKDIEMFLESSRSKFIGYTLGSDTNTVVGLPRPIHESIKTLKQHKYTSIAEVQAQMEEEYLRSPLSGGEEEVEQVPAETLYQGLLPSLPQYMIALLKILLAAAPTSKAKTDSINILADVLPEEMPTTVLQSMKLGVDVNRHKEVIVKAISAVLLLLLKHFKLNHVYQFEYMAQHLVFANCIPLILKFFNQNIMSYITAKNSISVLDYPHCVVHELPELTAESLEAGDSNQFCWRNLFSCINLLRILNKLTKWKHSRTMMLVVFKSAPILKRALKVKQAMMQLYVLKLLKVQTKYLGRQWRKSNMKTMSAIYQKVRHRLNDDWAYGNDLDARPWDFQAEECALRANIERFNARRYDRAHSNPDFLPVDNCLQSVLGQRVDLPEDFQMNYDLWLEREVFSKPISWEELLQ
# Sequence of UniProt Q9BPX5 (Q9BPX5 whole entry): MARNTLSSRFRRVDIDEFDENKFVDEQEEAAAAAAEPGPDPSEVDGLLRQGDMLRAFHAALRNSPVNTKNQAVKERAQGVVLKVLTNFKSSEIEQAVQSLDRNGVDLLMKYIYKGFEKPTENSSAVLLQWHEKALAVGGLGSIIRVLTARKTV
# Sequence of UniProt O15066 (O15066 whole entry): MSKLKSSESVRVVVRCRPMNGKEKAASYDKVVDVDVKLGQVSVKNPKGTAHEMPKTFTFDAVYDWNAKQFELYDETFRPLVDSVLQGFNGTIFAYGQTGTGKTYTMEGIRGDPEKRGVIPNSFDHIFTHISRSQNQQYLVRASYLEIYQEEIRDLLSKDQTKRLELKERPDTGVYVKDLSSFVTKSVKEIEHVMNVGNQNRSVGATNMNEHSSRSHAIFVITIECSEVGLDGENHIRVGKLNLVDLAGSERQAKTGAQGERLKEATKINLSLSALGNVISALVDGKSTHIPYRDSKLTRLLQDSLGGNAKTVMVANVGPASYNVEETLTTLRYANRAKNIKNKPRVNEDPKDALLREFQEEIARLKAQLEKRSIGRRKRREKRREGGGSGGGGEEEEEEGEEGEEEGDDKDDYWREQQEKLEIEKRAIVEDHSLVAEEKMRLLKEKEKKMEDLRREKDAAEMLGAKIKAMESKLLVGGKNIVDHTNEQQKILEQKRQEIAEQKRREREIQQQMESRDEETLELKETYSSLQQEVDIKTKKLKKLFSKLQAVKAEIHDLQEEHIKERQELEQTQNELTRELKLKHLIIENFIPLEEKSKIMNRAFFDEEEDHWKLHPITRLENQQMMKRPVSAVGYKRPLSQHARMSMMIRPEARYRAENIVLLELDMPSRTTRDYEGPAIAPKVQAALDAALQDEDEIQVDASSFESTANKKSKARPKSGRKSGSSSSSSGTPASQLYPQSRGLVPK
# Sequence of UniProt Q9NYH9 (Q9NYH9 whole entry): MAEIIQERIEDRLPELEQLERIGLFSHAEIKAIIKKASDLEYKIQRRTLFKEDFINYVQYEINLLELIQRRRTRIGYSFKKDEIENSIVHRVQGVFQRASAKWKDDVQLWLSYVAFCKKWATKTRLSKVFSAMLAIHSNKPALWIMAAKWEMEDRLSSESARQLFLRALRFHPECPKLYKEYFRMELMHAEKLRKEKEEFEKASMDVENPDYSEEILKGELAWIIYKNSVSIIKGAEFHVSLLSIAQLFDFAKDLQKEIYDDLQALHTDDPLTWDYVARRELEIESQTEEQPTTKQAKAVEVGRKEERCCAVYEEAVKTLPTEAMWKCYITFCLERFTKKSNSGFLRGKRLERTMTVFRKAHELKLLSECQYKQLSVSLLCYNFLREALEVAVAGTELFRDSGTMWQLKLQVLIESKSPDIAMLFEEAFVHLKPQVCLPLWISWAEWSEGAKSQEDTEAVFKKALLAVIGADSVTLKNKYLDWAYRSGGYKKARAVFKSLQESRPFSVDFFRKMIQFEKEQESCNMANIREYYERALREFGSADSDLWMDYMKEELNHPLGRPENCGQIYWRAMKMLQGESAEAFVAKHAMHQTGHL
# Sequence of UniProt O00165 (O00165 whole entry): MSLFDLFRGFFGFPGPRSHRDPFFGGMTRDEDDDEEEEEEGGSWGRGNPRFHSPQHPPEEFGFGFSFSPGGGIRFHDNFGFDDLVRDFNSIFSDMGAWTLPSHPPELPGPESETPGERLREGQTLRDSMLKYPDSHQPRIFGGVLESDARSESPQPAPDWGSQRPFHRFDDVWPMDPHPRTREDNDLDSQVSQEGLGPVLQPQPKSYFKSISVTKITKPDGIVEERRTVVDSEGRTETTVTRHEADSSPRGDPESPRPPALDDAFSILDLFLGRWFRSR
# Sequence of UniProt Q9NWX5 (Q9NWX5 whole entry): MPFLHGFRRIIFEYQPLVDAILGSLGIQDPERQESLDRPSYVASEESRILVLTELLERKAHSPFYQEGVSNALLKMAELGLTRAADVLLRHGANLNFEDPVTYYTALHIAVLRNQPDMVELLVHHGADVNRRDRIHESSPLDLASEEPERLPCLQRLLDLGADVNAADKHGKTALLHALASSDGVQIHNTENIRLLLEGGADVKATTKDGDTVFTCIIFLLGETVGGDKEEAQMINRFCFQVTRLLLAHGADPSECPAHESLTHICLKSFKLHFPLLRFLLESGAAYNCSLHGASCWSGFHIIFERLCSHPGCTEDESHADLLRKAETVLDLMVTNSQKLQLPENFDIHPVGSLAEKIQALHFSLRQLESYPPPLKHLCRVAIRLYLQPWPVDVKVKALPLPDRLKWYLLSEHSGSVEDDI
# Sequence of UniProt P29373 (P29373 whole entry): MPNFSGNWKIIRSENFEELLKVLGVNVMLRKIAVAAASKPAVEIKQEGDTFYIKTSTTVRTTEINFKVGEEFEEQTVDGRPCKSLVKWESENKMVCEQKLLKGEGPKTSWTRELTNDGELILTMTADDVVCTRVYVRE
# Sequence of UniProt Q7L5D6 (Q7L5D6 whole entry): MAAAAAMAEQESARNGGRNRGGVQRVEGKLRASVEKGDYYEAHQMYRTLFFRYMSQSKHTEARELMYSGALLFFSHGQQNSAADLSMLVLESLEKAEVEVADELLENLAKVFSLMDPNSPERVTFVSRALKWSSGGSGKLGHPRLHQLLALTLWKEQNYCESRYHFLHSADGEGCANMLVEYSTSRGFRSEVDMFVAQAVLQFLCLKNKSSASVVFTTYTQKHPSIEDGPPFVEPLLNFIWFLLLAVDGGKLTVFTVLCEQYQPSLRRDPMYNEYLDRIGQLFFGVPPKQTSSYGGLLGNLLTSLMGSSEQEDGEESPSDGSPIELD
Target,"thermal stability z-score [1, 3]",thermal stability z-score ([1]; arsenate co-treatment: none),thermal stability z-score [2]
TMED2 (UniProt Q15363),-0.867,-1.06,0.624
KIF3B (UniProt O15066),0.285,-0.318,-0.47
SAMD4B (UniProt Q5PRF9),0.14,0.116,-0.143
CHAF1A (UniProt Q13111),0.0368,0.138,-0.0415
STRIP1 (UniProt Q5VSL9),0.978,1.5,1.36
HAX1 (UniProt O00165),-1,-0.895,-0.11
ASB6 (UniProt Q9NWX5),0.441,-0.288,0.506
CRABP2 (UniProt P29373),0.359,1.24,0.378
DNMT1 (UniProt P26358),-0.115,0.0323,-0.517
TTC13 (UniProt Q8NBP0),-0.787,-1.08,0.595
ARPC5L (UniProt Q9BPX5),0.0991,-0.00985,-0.302
MRPL35 (UniProt Q9NZE8),-0.257,-0.048,0.129
MRPS21 (UniProt P82921),-0.28,-0.78,1.03
GET4 (UniProt Q7L5D6),-0.844,-0.0598,0.752
FANCD2 (UniProt Q9BXW9),-0.812,-0.0726,-0.953
RPL27 (UniProt P61353),0.459,0.431,-0.612
SLC39A14 (UniProt Q15043),-0.0157,-0.137,-0.236
UTP6 (UniProt Q9NYH9),0.13,-0.00953,0.272
